According to patent publication US3985761A, “Nitrothiazolyl derivatives of nitrostyrene” (priority 1974, dated 1976):
≈ marks a conversion by molar mass, not a printed value. Like-named read-outs stand apart in the source and are kept apart here.

Assays:
Hymenolepsis nana = assay: Activity against tapeworms Hymenolepsis nana in mice; assay type: in vivo, Hymenolepsis nana (infected Albimo mice); conditions: Mus musculus, po, 72 h, read-out: Activity: % of infected mice getting 100% clearance
Method: The anthelmintic properties of the products of the invention have been determined as follows:
Albimo mice of either sex (18-20 g.weight range) were administered by gavage 0.2 ml of the standard inoculum (containing 1000 viable eggs). 20 days later, the faecal matter was checked for Hymenolipis nana eggs. Mice showing the presence of H nana eggs were taken for experiments. They were classified on the weight basis. 5 animals were taken in each cage.
Compounds of the invention under investigation were suspended in 0.2% tragacanth. Concentrations were adjusted in such a way that 0.2 ml conformed to particular dosage schedule for each compound. They were administered by gavage in fasting condition in the morning on 21st day post infection, once daily for 3 consecutive days. For each set of test compound group, one cage of infected control mice was kept. These received saline for 3 days.
After 3 consecutive days of administration, all mice were kept fasting on the subsequent day (24th day post infection) and sacrificed on the 25th day. Results of surviving mice only have been taken. From each mouse, the whole intestine including caecum was collected in a petri dish with water. It was cut open longitudinally and was examined for adult worms and scolices. Absolute clearance of worms and scolices in individual mouse was taken as a criterion for assessing the results of each group.
The data on some of the compounds studied are represented in Table II

plant pathogenic fungi = conditions: C.A. Vol. 62, 14569e; cited from earlier work
E.coli = assay: Antimicrobial serial dilution (MIC), E.c.; assay type: cell-based; conditions: Escherichia coli
[1] = test system: antibiotic resistant Staph aureus; assay: Antimicrobial serial dilution (MIC), A/R S.a; assay type: cell-based; conditions: Staphylococcus aureus, read-out: MIC A/R S.a
Ps. aeruginosa = assay: Antimicrobial serial dilution (MIC), P.a; assay type: cell-based; conditions: Pseudomonas aeruginosa
Staph. aureus = assay: Antimicrobial serial dilution (MIC), S.a; assay type: cell-based; conditions: Staphylococcus aureus
Proteus vulgaris ox 19 = assay: Antimicrobial serial dilution (MIC), Pr.ox; assay type: cell-based; conditions: OX19
S.Shigae = assay: microbe, parasite or virus in culture; assay type: cell-based; conditions: Shigella dysenteriae, read-out: MIC S.s
S. typhi = assay: Antimicrobial serial dilution (MIC), S.t; assay type: cell-based; conditions: Salmonella enterica
Nocardia asteroides = assay: Antimicrobial serial dilution (MIC), N.a; assay type: cell-based
microsporum gypseum = assay: Antimicrobial serial dilution (MIC), M.gy; assay type: cell-based; conditions: Nannizzia gypsea
Candida albicans = assay: Antimicrobial serial dilution (MIC), C.a; assay type: cell-based
Aspergillus fumigatus = assay: Antimicrobial serial dilution (MIC), A.f; assay type: cell-based
Phialophora jeanselmei = assay: Antimicrobial serial dilution (MIC), Ph.je; assay type: cell-based; conditions: Exophiala jeanselmei
[2] = test system: Trichophyton mentagrophytes; assay: Antimicrobial serial dilution (MIC), T.m; assay type: cell-based
[3] = 400 mg/kg/day × 3 days, gavage, surviving mice only

| SMILES | MIC (E.coli) [µg/mL] | MIC [1] [µg/mL] | MIC (Ps. aeruginosa) [µg/mL] | MIC (Staph. aureus) [µg/mL] | MIC (Proteus vulgaris ox 19) [µg/mL] | MIC (S.Shigae) [µg/mL] | MIC (S. typhi) [µg/mL] | MIC (Nocardia asteroides) [µg/mL] | MIC (microsporum gypseum) [µg/mL] | MIC (Candida albicans) [µg/mL] | MIC (Aspergillus fumigatus) [µg/mL] | MIC (Phialophora jeanselmei) [µg/mL] | MIC [2] [µg/mL] | further results |
| --- | --- | --- | --- | --- | --- | --- | --- | --- | --- | --- | --- | --- | --- | --- |
| O=C(Nc1ccccc1)Oc1ccc(C=C[N+](=O)[O-])cc1 |  |  |  |  |  |  |  |  |  |  |  |  |  | responders at 350 mg/kg (Hymenolepsis nana): 90% |
| Cc1ccc(NC(=O)Oc2ccc(C=C[N+](=O)[O-])cc2)cc1 |  |  |  |  |  |  |  |  |  |  |  |  |  | responders at 400 mg/kg (Hymenolepsis nana): 94% |
| CCCCNC(=O)Oc1ccc(C=C(C)[N+](=O)[O-])cc1Cl |  |  |  |  |  |  |  |  |  |  |  |  |  | responders at 400 mg/kg (Hymenolepsis nana; [3]): 100% |
| CC(=Cc1ccc(OC(=O)Nc2ccccc2)c(Cl)c1)[N+](=O)[O-] |  |  |  |  |  |  |  |  |  |  |  |  |  | responders at 400 mg/kg (Hymenolepsis nana; [3]): 100% |
| CC(=Cc1ccc(OC(=O)Nc2ccc(C)cc2)c(Cl)c1)[N+](=O)[O-] |  |  |  |  |  |  |  |  |  |  |  |  |  | responders at 400 mg/kg (Hymenolepsis nana; [3]): 100% |
| O=C(Nc1ccc(Br)cc1)Oc1cccc(C=C[N+](=O)[O-])c1 |  |  |  |  |  |  |  |  |  |  |  |  |  | responders at 400 mg/kg (Hymenolepsis nana): 100% |
| CC(=Cc1cccc(OC(=O)Nc2ccccc2)c1)[N+](=O)[O-] |  |  |  |  |  |  |  |  |  |  |  |  |  | responders at 400 mg/kg (Hymenolepsis nana; [3]): 100% |
| CC(=Cc1cccc(OC(=O)Nc2ccc(C)cc2)c1)[N+](=O)[O-] |  |  |  |  |  |  |  |  |  |  |  |  |  | responders at 200 mg/kg (Hymenolepsis nana; 200 mg/kg/day × 3 days, gavage, surviving mice only): 100% |
| O=[N+]([O-])C=Cc1ccc(O)c([N+](=O)[O-])c1 [3-nitro-4-hydroxy-β-nitrostyrene] |  |  |  |  |  |  |  |  |  |  |  |  |  | antifungal properties against plant pathogenic fungi (plant pathogenic fungi): antifungal properties against plant pathogenic fungi |
| CC(=Cc1ccc(OC(=O)Nc2ccc(C)cc2)cc1)[N+](=O)[O-] [drawing 3] | 6.25 (≈ 20 µM) | 6.25 (≈ 20 µM) | ≥ 50 | 6.25 (≈ 20 µM) | 6.25 (≈ 20 µM) | 12.5 (≈ 40 µM) | 50 (≈ 160 µM) |  |  |  |  |  |  |  |
| CC(=Cc1ccc(OC(=O)Nc2ccc(Br)cc2)cc1)[N+](=O)[O-] [drawing 4] | 6.25 (≈ 16.6 µM) | 12.5 (≈ 33.1 µM) | ≥ 50 | 6.25 (≈ 16.6 µM) | 6.25 (≈ 16.6 µM) | 6.25 to 12.5 (≈ 16.6 to 33.1 µM) | ≥ 50 |  |  |  |  |  |  |  |
| CCCCNC(=O)Oc1ccc(C=C(C)[N+](=O)[O-])cc1 [drawing 5] | 6.25 to 12.5 (≈ 22.5 to 44.9 µM) | 6.25 (≈ 22.5 µM) | ≥ 50 | 6.25 (≈ 22.5 µM) | 6.25 (≈ 22.5 µM) | 12.5 (≈ 44.9 µM) | 50 (≈ 180 µM) |  |  |  |  |  |  |  |
| CC(=Cc1ccc(OC(=O)NC2CCCCC2)cc1)[N+](=O)[O-] [drawing 6] | 6.12 to 12.5 (≈ 20.1 to 41.1 µM) | 3.12 (≈ 10.3 µM) | ≥ 50 | 3.12 (≈ 10.3 µM) | 6.25 to 12.5 (≈ 20.5 to 41.1 µM) | 12.5 (≈ 41.1 µM) | 50 (≈ 164 µM) |  |  |  |  |  |  |  |
| CC(=Cc1ccc(OC(=O)Nc2ccccc2)cc1)[N+](=O)[O-] [drawing 7] | 6.25 (≈ 21 µM) | 3.12 to 6.25 (≈ 10.5 to 21 µM) | ≥ 50 | 6.25 (≈ 21 µM) | 12.5 (≈ 41.9 µM) | 6.25 (≈ 21 µM) | 50 (≈ 168 µM) |  |  |  |  |  |  |  |
| CC(=Cc1cccc(O)c1)[N+](=O)[O-] [drawing 8] | 3.12 (≈ 17.4 µM) | 3.12 (≈ 17.4 µM) | 50 (≈ 279 µM) | 3.12 (≈ 17.4 µM) | 3.12 (≈ 17.4 µM) | 3.12 (≈ 17.4 µM) | 50 (≈ 279 µM) |  |  |  |  |  |  |  |
| CC(=Cc1ccc(Oc2ncc([N+](=O)[O-])s2)cc1)[N+](=O)[O-] [drawing 9] | 3.12 (≈ 10.2 µM) | 1.56 (≈ 5.08 µM) | ≥ 50 | 1.56 (≈ 5.08 µM) | 1.56 to 3.12 (≈ 5.08 to 10.2 µM) | 3.12 (≈ 10.2 µM) | 50 (≈ 163 µM) |  |  |  |  |  |  |  |
| CC(=Cc1ccc(O)c(Cl)c1)[N+](=O)[O-] [drawing 10] | 12.5 to 25 (≈ 58.5 to 117 µM) | 3.12 (≈ 14.6 µM) | ≥ 50 | 3.12 (≈ 14.6 µM) | 6.25 (≈ 29.3 µM) | 25 (≈ 117 µM) | 50 (≈ 234 µM) |  |  |  |  |  |  |  |
| O=[N+]([O-])C=Cc1cc(Cl)ccc1O [drawing 11] | 50 (≈ 251 µM) | 3.12 (≈ 15.7 µM) | ≥ 50 | 3.12 (≈ 15.7 µM) | 25 (≈ 125 µM) | 50 (≈ 251 µM) | 50 (≈ 251 µM) |  |  |  |  |  |  |  |
| CC(=Cc1ccc(OC(=O)Nc2ccc(Br)cc2)c(Cl)c1)[N+](=O)[O-] [drawing 12] | 50 (≈ 121 µM) | 6.25 (≈ 15.2 µM) | ≥ 50 | 6.25 (≈ 15.2 µM) | 6.25 (≈ 15.2 µM) | 25 (≈ 60.7 µM) | > 50 |  |  |  |  |  |  |  |
| CC(=Cc1ccc(OC(=O)Nc2ccc(C)cc2)cc1)[N+](=O)[O-] [drawing 13] |  |  |  |  |  |  |  | 25.5 (≈ 81.6 µM) | 1.56 to 3.12 (≈ 4.99 to 10 µM) | 12.5 (≈ 40 µM) | 12.5 (≈ 40 µM) | 6.25 (≈ 20 µM) | 3.12 (≈ 10 µM) |  |
| CC(=Cc1ccc(OC(=O)Nc2ccc(Br)cc2)cc1)[N+](=O)[O-] [drawing 14] |  |  |  |  |  |  |  | 50 (≈ 133 µM) | 1.56 (≈ 4.14 µM) | 22.5 to 25 (≈ 59.7 to 66.3 µM) | 12.5 (≈ 33.1 µM) | 1.56 (≈ 4.14 µM) | 1.56 (≈ 4.14 µM) |  |
| CCCCNC(=O)Oc1ccc(C=C(C)[N+](=O)[O-])cc1 [drawing 15] |  |  |  |  |  |  |  | 50 (≈ 180 µM) | 0.39 to 0.78 (≈ 1.4 to 2.8 µM) | 12.5 to 25 (≈ 44.9 to 89.8 µM) | 6.25 (≈ 22.5 µM) | 0.78 (≈ 2.8 µM) | 0.78 (≈ 2.8 µM) |  |
| CC(=Cc1ccc(OC(=O)NC2CCCCC2)cc1)[N+](=O)[O-] [drawing 16] |  |  |  |  |  |  |  | 50 (≈ 164 µM) | 6.25 (≈ 20.5 µM) | 25 (≈ 82.1 µM) | 6.25 to 12.5 (≈ 20.5 to 41.1 µM) | 6.25 (≈ 20.5 µM) | 0.78 (≈ 2.56 µM) |  |
| CC(=Cc1ccc(OC(=O)Nc2ccccc2)cc1)[N+](=O)[O-] [drawing 17] |  |  |  |  |  |  |  | 25 (≈ 83.8 µM) | 3.12 (≈ 10.5 µM) | 25 (≈ 83.8 µM) | 6.25 (≈ 21 µM) | 3.12 (≈ 10.5 µM) | 3.12 to 6.25 (≈ 10.5 to 21 µM) |  |
| CC(=Cc1cccc(O)c1)[N+](=O)[O-] [drawing 18] |  |  |  |  |  |  |  | 25 (≈ 140 µM) | 1.56 (≈ 8.71 µM) | 12.5 (≈ 69.8 µM) | 6.25 (≈ 34.9 µM) | 3.12 (≈ 17.4 µM) | 1.56 (≈ 8.71 µM) |  |
| CC(=Cc1ccc(Oc2ncc([N+](=O)[O-])s2)cc1)[N+](=O)[O-] [drawing 19] |  |  |  |  |  |  |  | 12.5 (≈ 40.7 µM) | 0.39 to 0.78 (≈ 1.27 to 2.54 µM) | 3.12 (≈ 10.2 µM) | 1.56 (≈ 5.08 µM) | 0.39 (≈ 1.27 µM) | 0.19 (≈ 0.618 µM) |  |
| CC(=Cc1ccc(O)c(Cl)c1)[N+](=O)[O-] [drawing 20] |  |  |  |  |  |  |  | 50 (≈ 234 µM) | 1.56 (≈ 7.3 µM) | 12.5 (≈ 58.5 µM) | 6.25 (≈ 29.3 µM) | 3.12 (≈ 14.6 µM) | 1.56 (≈ 7.3 µM) |  |
| O=[N+]([O-])C=Cc1cc(Cl)ccc1O [drawing 21] |  |  |  |  |  |  |  | 25 (≈ 125 µM) | 6.25 to 12.5 (≈ 31.3 to 62.6 µM) | 25.5 (≈ 128 µM) | 12.5 (≈ 62.6 µM) | 12.5 (≈ 62.6 µM) | 6.25 (≈ 31.3 µM) |  |
| CC(=Cc1ccc(OC(=O)Nc2ccc(Br)cc2)c(Cl)c1)[N+](=O)[O-] [drawing 22] |  |  |  |  |  |  |  | 50 (≈ 121 µM) | 1.56 (≈ 3.79 µM) | 25 (≈ 60.7 µM) | 6.25 (≈ 15.2 µM) | 3.12 (≈ 7.59 µM) | 1.56 (≈ 3.79 µM) |  |
| CC(=Cc1ccc(OC(=O)Nc2ccccc2)cc1)[N+](=O)[O-] [drawing 25] |  |  |  |  |  |  |  |  |  |  |  |  |  | responders at 400 mg/kg (Hymenolepsis nana; [3]): 100% |
